According to patent US20260262643A1, “HERBICIDAL BENZOXAZINES” (FMC CORPORATION, priority 2022, published 2026):

Columns and labels:
[1] = tested on: blackgrass; experiment: Test A preemergence; assay type: in vivo, Alopecurus myosuroides
In short: (§1)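 Greenhouse pot test, 10 days. Compound (non-phytotoxic solvent, surfactant) sprayed on soil at seeding or on seedlings at one- to two-leaf stage. Visual injury rated 0–100 against untreated plants.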

[2] = tested on: wheat; experiment: Test A preemergence; assay type: in vivo, Triticum aestivum
In short: as §1

[3] = tested on: corn; experiment: Test A postemergence; assay type: in vivo, Zea mays
In short: as §1

[4] = tested on: foxtail, giant; experiment: Test A postemergence; assay type: in vivo, Setaria faberi
In short: as §1

[5] = tested on: kochia; experiment: Test A postemergence; assay type: in vivo, Bassia scoparia
In short: as §1

[6] = tested on: wheat; experiment: Test A postemergence; assay type: in vivo, Triticum aestivum
In short: as §1

[7] = tested on: rice; experiment: Test B flooded paddy test; assay type: in vivo, Oryza sativa; conditions: 250 g ai/ha, Flood, 13 days, 0 to 100 scale (0 no effect, 100 complete control)
In short: (§2)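 Flooded to 3 cm at treatment time, 2-leaf plants got the test compound applied straight into the paddy water. They then stayed under constant flood in a greenhouse for 13 days. Ratings used a 0 to 100 visual scale.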

[8] = tested on: horseweed; experiment: Test A postemergence; assay type: in vivo, Erigeron canadensis
In short: as §1

[9] = tested on: goosegrass; experiment: Test A postemergence; assay type: in vivo, Eleusine indica
In short: as §1

[10] = tested on: barnyardgrass; experiment: Test B flooded paddy test; assay type: in vivo, Echinochloa crus-galli; conditions: 250 g ai/ha, Flood, 13 days, 0 to 100 scale (0 no effect, 100 complete control)
In short: as §2

[11] = tested on: soybean; experiment: Test A preemergence; assay type: in vivo, Glycine max
In short: as §1

[12] = tested on: oat, wild; experiment: Test A preemergence; assay type: in vivo, Avena fatua
In short: as §1

[13] = tested on: ryegrass, Italian; experiment: Test A postemergence; assay type: in vivo, Lolium multiflorum
In short: as §1

[14] = tested on: galium; experiment: Test A postemergence; assay type: in vivo, Galium aparine
In short: as §1

[15] = tested on: foxtail, giant; experiment: Test A preemergence; assay type: in vivo, Setaria faberi
In short: as §1

[16] = tested on: soybean; experiment: Test A postemergence; assay type: in vivo, Glycine max
In short: as §1

[17] = tested on: sedge, umbrella; experiment: Test B flooded paddy test; assay type: in vivo, Cyperus difformis; conditions: 250 g ai/ha, Flood, 13 days, 0 to 100 scale (0 no effect, 100 complete control)
In short: as §2

[18] = tested on: goosegrass; experiment: Test A preemergence; assay type: in vivo, Eleusine indica
In short: as §1

[19] = tested on: oat, wild; experiment: Test A postemergence; assay type: in vivo, Avena fatua
In short: as §1

[20] = tested on: ducksalad; experiment: Test B flooded paddy test; assay type: in vivo, Heteranthera limosa; conditions: 250 g ai/ha, Flood, 13 days, 0 to 100 scale (0 no effect, 100 complete control)
In short: as §2

[21] = tested on: ragweed; experiment: Test A postemergence; assay type: in vivo, Ambrosia artemisiifolia
In short: as §1

[22] = tested on: kochia; experiment: Test A preemergence; assay type: in vivo, Bassia scoparia
In short: as §1

[23] = tested on: pigweed, palmer; experiment: Test A preemergence; assay type: in vivo, Amaranthus palmeri
In short: as §1

[24] = tested on: ragweed; experiment: Test A preemergence; assay type: in vivo, Ambrosia artemisiifolia
In short: as §1

[25] = tested on: corn; experiment: Test A preemergence; assay type: in vivo, Zea mays
In short: as §1

[26] = tested on: pigweed, palmer; experiment: Test A postemergence; assay type: in vivo, Amaranthus palmeri
In short: as §1

[27] = tested on: ryegrass, Italian; experiment: Test A preemergence; assay type: in vivo, Lolium multiflorum
In short: as §1

[28] = tested on: blackgrass; experiment: Test A postemergence; assay type: in vivo, Alopecurus myosuroides
In short: as §1

[29] = 125 g ai/ha, visual injury after 10 days, 0 to 100 scale, 0 is no effect, 100 is complete control
[30] = 500 g ai/ha, 0 to 100 scale (0 no effect, 100 complete control), 10 days
[31] = 125 g ai/ha, postemergence, 10 days, visual injury, 0 to 100 scale (0 no effect, 100 complete control)
[32] = 500 g ai/ha, postemergence, 10 days, visual injury, 0 to 100 scale (0 no effect, 100 complete control)
[33] = 500 g ai/ha, Postemergence, 0 to 100 scale

Cc1cccc2c1O[C@@H](C)CN2C(=O)c1cccc(-n2cnc(C(F)(F)F)n2)c1 [Compound 66]
60: Plant response rating, Blackgrass [28, 31]
40: Plant response rating, Soybean [11, 30] | Plant response rating, Ragweed [21, 32]
50: Plant response rating, Goosegrass [9, 32] | Plant response rating, Pigweed, Palmer [23, 29] | Plant response rating, Corn [25, 30]
70: Plant response rating, Blackgrass [1, 29] | Plant response rating, Corn [3, 32] | Plant response rating, Ryegrass, Italian [13, 32] | Plant response rating, Oat, Wild [19, 32]
10: Plant response rating, Goosegrass [9, 31] | Plant response rating, Kochia [22, 29]
20: Plant response rating, Wheat [2, 29] | Plant response rating, Foxtail, Giant [4, 31] | Plant response rating, Wheat [6, 32]
100: Plant response rating, Galium [14, 32] | Plant response rating, Foxtail, Giant [15, 30] | Plant response rating, Soybean [16, 32] | Plant response rating, Goosegrass [18, 29] | Plant response rating, Goosegrass [18, 30] | Plant response rating, Pigweed, Palmer [23, 30] | Plant response rating, Ryegrass, Italian [27, 29] | Plant response rating, Ryegrass, Italian [27, 30]
80: Plant response rating, Wheat [2, 30] | Plant response rating, Kochia [5, 32] | Plant response rating, Galium [14, 31]
90: Plant response rating, Blackgrass [1, 30] | Plant response rating, Foxtail, Giant [4, 32] | Plant response rating, Oat, Wild [12, 30] | Plant response rating, Foxtail, Giant [15, 29] | Plant response rating, Kochia [22, 30] | Plant response rating, Blackgrass [28, 33]
30: Plant response rating, Kochia [5, 31] | Plant response rating, Soybean [11, 29] | Plant response rating, Oat, Wild [12, 29] | Plant response rating, Corn [25, 29] | Plant response rating, Pigweed, Palmer [26, 32]
0: Plant response rating, Corn [3, 31] | Plant response rating, Rice [7] | Plant response rating, Horseweed [8, 31] | Plant response rating, Horseweed [8, 32] | Plant response rating, Barnyardgrass [10] | Plant response rating, Sedge, Umbrella [17] | Plant response rating, Ducksalad [20] | Plant response rating, Ragweed [24, 29] | Plant response rating, Ragweed [24, 30]

Cc1c(C(=O)N2CC(C)Oc3c(Cl)cccc32)cccc1-n1cncn1 (centres unmarked) [Compound 40]
20: Plant response rating, Soybean [16, 33]
30: Plant response rating, Galium [14, 31]
0: Plant response rating, Blackgrass [1, 29] | Plant response rating, Blackgrass [1, 30] | Plant response rating, Wheat [2, 29] | Plant response rating, Wheat [2, 30] | Plant response rating, Corn [3, 31] | Plant response rating, Corn [3, 33] | Plant response rating, Foxtail, Giant [4, 31] | Plant response rating, Foxtail, Giant [4, 33] | Plant response rating, Kochia [5, 31] | Plant response rating, Wheat [6, 31] | Plant response rating, Wheat [6, 33] | Plant response rating, Rice [7] | Plant response rating, Horseweed [8, 31] | Plant response rating, Horseweed [8, 33] | Plant response rating, Goosegrass [9, 31] | Plant response rating, Goosegrass [9, 33] | Plant response rating, Barnyardgrass [10] | Plant response rating, Soybean [11, 29] | Plant response rating, Oat, Wild [12, 29] | Plant response rating, Oat, Wild [12, 30] | Plant response rating, Ryegrass, Italian [13, 31] | Plant response rating, Ryegrass, Italian [13, 33] | Plant response rating, Galium [14, 33] | Plant response rating, Foxtail, Giant [15, 29] | Plant response rating, Foxtail, Giant [15, 30] | Plant response rating, Soybean [16, 31] | Plant response rating, Sedge, Umbrella [17] | Plant response rating, Goosegrass [18, 29] | Plant response rating, Goosegrass [18, 30] | Plant response rating, Oat, Wild [19, 31] | Plant response rating, Oat, Wild [19, 33] | Plant response rating, Ducksalad [20] | Plant response rating, Ragweed [21, 31] | Plant response rating, Ragweed [21, 33] | Plant response rating, Kochia [22, 29] | Plant response rating, Kochia [22, 30] | Plant response rating, Pigweed, Palmer [23, 29] | Plant response rating, Pigweed, Palmer [23, 30] | Plant response rating, Ragweed [24, 29] | Plant response rating, Ragweed [24, 30] | Plant response rating, Corn [25, 29] | Plant response rating, Corn [25, 30] | Plant response rating, Pigweed, Palmer [26, 31] | Plant response rating, Pigweed, Palmer [26, 33] | Plant response rating, Ryegrass, Italian [27, 29] | Plant response rating, Ryegrass, Italian [27, 30] | Plant response rating, Blackgrass [28, 31] | Plant response rating, Blackgrass [28, 33]
40: Plant response rating, Soybean [11, 30]
10: Plant response rating, Kochia [5, 33]
